Assay results from patent US20250000854A1, “4-(Aminomethyl)-6-(1-Methyl-1H-Pyrazol-4-YL)Isoquinolin-1(2H)-One Derivatives as MTA-Cooperative Inhibitors of PRMT5” (BeiGene, Ltd., priority 2022, published 2025).
Counter-ions that a name gives are not always drawn.

What was measured:
human PRMT5/MEP50 enzyme [1] = target: T1, human PRMT5/MEP50 enzyme (Homo sapiens (Human), UniProt O14744); test: PRMT5 Biochemical Assay (TR-FRET) in the absence of MTA; conditions: without MTA; 10 nM PRMT5/MEP50, 3 μM S-adenosylmethionine, histone H4 peptide
Experimental: (§1) The assay measures the methylation activity of purified human PRMT5/MEP50 enzyme toward histone H4-R3. Compounds disclosed herein were tested for inhibition of PRMT5/MEP50 using PRMT5 TR-FRET Assay Kit (BPS Bioscience) which contains a highly specific antibody that recognizes methylated substrates. The assay was carried out in 384-well low volume black plates in a reaction mixture containing 10 nM PRMT5/MEP50 complex, biotinylated histone H4 peptide, 3 μM S-adenosylmethionine and 0-10 μM compound in buffer containing 50 mM Tris-HCl buffer (pH 8.5), 0.005% BSA, 1 mM TCEP and 0.002% Tween-20. The PRMT5/MEP50 enzyme was incubated with compounds disclosed herein and biotinylated histone H4 peptide for 20 minutes at room temperature. The reaction was initiated by addition of S-adenosylmethionine. After reacting at room temperature for 120 minutes, the detection solution containing Eu-labeled antibody and dye-labeled acceptor in detection buffer was added to the reaction mixture. Plates were sealed and incubated at room temperature for 60 minutes, and the TR-FRET signals (excitation 337 nm, emission 665/620 nm) were recorded on a PHERAstar FSX plate reader (BMG Labtech). The inhibition percentage of PRMT5/MEP50 activity in presence of increasing concentrations of compounds was calculated based on the ratio of fluorescence at 665 nm to that at 620 nm. The IC50 value for each compound was derived from fitting the dose-response % inhibition data to the four-parameter logistic model by Dotmatics. And the compounds were tested in the presence and absence of MTA to evaluate whether the compounds display MTA-cooperative activity.

human PRMT5/MEP50 enzyme [2] = target: T1, human PRMT5/MEP50 enzyme; test: PRMT5 Biochemical Assay (TR-FRET) in the presence of MTA; conditions: with 800 nM MTA; 10 nM PRMT5/MEP50, 3 μM S-adenosylmethionine, histone H4 peptide
Experimental: as §1

T1 sequence (O14744 whole entry): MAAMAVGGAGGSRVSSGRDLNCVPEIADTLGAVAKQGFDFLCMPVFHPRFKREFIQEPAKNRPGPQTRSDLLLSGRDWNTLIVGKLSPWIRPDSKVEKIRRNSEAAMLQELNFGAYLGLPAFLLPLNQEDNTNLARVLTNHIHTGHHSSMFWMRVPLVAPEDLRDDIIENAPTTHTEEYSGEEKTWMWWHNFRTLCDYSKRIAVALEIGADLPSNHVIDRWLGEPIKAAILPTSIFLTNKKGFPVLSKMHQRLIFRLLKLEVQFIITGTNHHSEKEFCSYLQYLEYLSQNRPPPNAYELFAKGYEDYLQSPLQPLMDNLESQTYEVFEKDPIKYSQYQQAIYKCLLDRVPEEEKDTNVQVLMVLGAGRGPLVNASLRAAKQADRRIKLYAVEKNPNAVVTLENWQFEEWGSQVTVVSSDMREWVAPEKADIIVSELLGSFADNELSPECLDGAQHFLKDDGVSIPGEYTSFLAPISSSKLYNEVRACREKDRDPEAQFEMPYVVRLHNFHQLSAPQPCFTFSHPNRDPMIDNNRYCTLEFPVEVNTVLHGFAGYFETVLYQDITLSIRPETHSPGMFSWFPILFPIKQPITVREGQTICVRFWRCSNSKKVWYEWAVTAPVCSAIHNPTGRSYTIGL
T1 sequence (Q9BQA1 whole entry partner): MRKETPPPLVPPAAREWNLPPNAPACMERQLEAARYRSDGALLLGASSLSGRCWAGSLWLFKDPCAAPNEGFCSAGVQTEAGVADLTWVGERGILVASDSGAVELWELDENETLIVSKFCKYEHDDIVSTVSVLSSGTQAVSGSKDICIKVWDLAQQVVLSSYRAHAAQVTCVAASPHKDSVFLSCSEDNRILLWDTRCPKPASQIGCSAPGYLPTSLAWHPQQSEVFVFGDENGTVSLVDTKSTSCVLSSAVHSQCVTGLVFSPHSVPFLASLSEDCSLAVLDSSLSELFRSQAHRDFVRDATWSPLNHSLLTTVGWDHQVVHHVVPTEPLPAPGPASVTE

Row | IC50 (human PRMT5/MEP50 enzyme [1]) [µM] | IC50 (human PRMT5/MEP50 enzyme [2]) [µM] | SMILES
1 | 0.029 | 0.0032 | Cn1ncc(-c2ccc3c(=O)[nH]cc(CN)c3c2)c1-c1c(F)cc2ccccc2c1C#N [Example 1, 2-(4-(4-(aminomethyl)-1-oxo-1,2-dihydroisoquinolin-6-yl)-1-methyl-1H-pyrazol-5-yl)-3-fluoro-1-naphthonitrile]
2 | 0.077 | 0.0033 | Cn1ncc(-c2ccc3c(=O)[nH]cc(CN)c3c2)c1-c1cc(Cl)cc(OC2CC2)c1C#N [Example 2, 2-(4-(4-(aminomethyl)-1-oxo-1,2-dihydroisoquinolin-6-yl)-1-methyl-1H-pyrazol-5-yl)-4-chloro-6-cyclopropoxybenzonitrile hydrochloride]
3 | 0.068 | 0.0076 | Cn1ncc(-c2ccc3c(=O)[nH]cc(CN)c3c2)c1-c1c(F)c(Cl)cc(OC2CC2)c1C#N [Example 3, 2-(4-(4-(aminomethyl)-1-oxo-1,2-dihydroisoquinolin-6-yl)-1-methyl-1H-pyrazol-5-yl)-4-chloro-6-cyclopropoxy-3-fluorobenzonitrile hydrochloride]
4 | 0.029 | 0.0027 | Cc1cc(-c2c(-c3ccc4c(=O)[nH]cc(CN)c4c3)cnn2C)c(C#N)c2ccccc12 [Example 4, 2-(4-(4-(aminomethyl)-1-oxo-1,2-dihydroisoquinolin-6-yl)-1-methyl-1H-pyrazol-5-yl)-4-methyl-1-naphthonitrile hydrochloride]
5 | 0.027 | 0.0027 | Cn1ncc(-c2ccc3c(=O)[nH]cc(CN)c3c2)c1-c1cc(Cl)c2ccccc2c1C#N [Example 5, 2-(4-(4-(aminomethyl)-1-oxo-1,2-dihydroisoquinolin-6-yl)-1-methyl-1H-pyrazol-5-yl)-4-chloro-1-naphthonitrile hydrochloride]
6 | 0.087 | 0.0035 | Cn1ncc(-c2ccc3c(=O)[nH]cc(CN)c3c2)c1-c1cccc(OC2CC2)c1C#N [Example 6, 2-(4-(4-(aminomethyl)-1-oxo-1,2-dihydroisoquinolin-6-yl)-1-methyl-1H-pyrazol-5-yl)-6-cyclopropoxybenzonitrile hydrochloride]
7 | 0.165 | 0.0062 | Cn1ncc(-c2ccc3c(=O)[nH]cc(CN)c3c2)c1-c1cc(C(F)(F)F)cc(OC2CC2)c1C#N [Example 7, 2-(4-(4-(aminomethyl)-1-oxo-1,2-dihydroisoquinolin-6-yl)-1-methyl-1H-pyrazol-5-yl)-6-cyclopropoxy-4-(trifluoromethyl)benzonitrile hydrochloride]
